Reference: patent publication EP0421697A2, “Contrast agents and methods for enhancing magnetic resonance imaging” (SMITHKLINE BEECHAM CORPORATION, priority 1989, dated 1991)

Legend:
normal rat kidney = experiment: MR imaging of rat kidney after i.v. bolus of Yb-DTPA (signal intensity ratio Ipapilla/Imuscle over time); type: in vivo, rats; details: 1 ml of a 50 mM solution in saline, GE SIGNA 1.5T, images every 20 seconds, Figure 1
Excerpt: After administration of the chelate solution to the subject, imaging with any conventional MR imaging system may be begun. Preferably, a fast imaging sequence, such as gradient echo imaging is used. […] This graph plots the ratio of signal intensity of region of interest to signal intensity of surrounding muscle tissue over time, as shown, for example in Figure 1, discussed below.
As in the above comparative example, rats were provided with an infusion line and strapped in an MRI magnet GE SIGNA 1.5T. 1 ml of a 50 mM solution of Yb-DTPA in saline was injected (intravenously) as a bolus. Images were collected every 20 seconds and the signal intensity from the rat papilla (Ipapilla) and signal intensity for the surrounding rat muscle (Imuscle) were measured. […] The area under the curve is an index of GFR.

[1] = design: species or system Male Sprague-Dawley rats; details: rat, in vivo
Experimental: Male Sprague-Dawley rats (200 to 350 g; Charles River Breeding Laboratories, Raleigh, NC) were anesthetized with Inactin (100 mg/kg, i.p.; Byk Gulden). A jugular vein and femoral artery were isolated and cannulated with PE-50 polyethylene tubing (Clay-Adams). The femoral artery cannula was connected to a pressure transducer (Gould-Statham Model P23id) for blood pressure and heart rate recording. The jugular vein cannula was connected to an infusion pump (Sage Model 352) and an infusion of inulin (Inutest, Laevasan-Gesellschaft; 10% in 0.9% NaCl) and ytterbium-diethyltriaminepentaacetic acid (Yb-DTPA in water 6.0 mg/ml) was initiated at a rate of […]. […]
Urine volumes were measured gravimetrically (specific gravity = 1) and 50 µl was removed for determination of inulin and Yb-DTPA concentrations. Inulin concentrations in plasma and urine samples were determined according to the method of Heyrosky (1956). Yb concentrations were determined by inductively-coupled plasma emission spectrometry using a Model JY-38P (Instruments SA, Inc.) and a grating of 3600 lines/mm. The 369.42 nm Yb line and 5 one-second measurements were taken at the end of each sample aspiration to provide an average reading (Bumbier, et al., 1984). […] Plasma concentrations of inulin and Yb-DTPA for C₂ were estimated from values measured for C₁ and C₃. […]

For “ytterbium-diethylenetriamine pentaacetic acid [Yb-DTPA]”, the “ratio of signal intensities Ipapilla/Imuscle against time” value (normal rat kidney) was “sharp decrease in the ratio and the slow rise”, the “Mean (± SEM) renal clearance (Cin, CYb)” value [1] was 1101 ± 47 and the “share of renal elimination via glomerular filtration” value [1] was ~85%.
